A short description of series [1]: Tribocharging of ibuprofen powder in V blenders, specific charge measured by Faraday cup. Format: physicochemical. Here is the method:
Ibuprofen was chosen as the model blending powder 140 due to its ability to charge excessively and was evaluated in all the V blenders 110. The V blender materials were procured from McMaster-Carr (https://www.mcmaster.com/) and was fabricated at the University of Connecticut (https://uconn.edu/). Ibuprofen powder 140 was spread into thin layers onto aluminum foil and equilibrated overnight at 16% RH along with the V blender 110 before the blending experiments. Before starting the experiment, initial charge was measured using Faraday cup 200. The blender 110 was charged with the powder 140 and blended in all the blenders for different time intervals. After completion of the tribocharging experiment powder was collected in the Faraday cup 200 connected to a nano-coulombmeter to measure the charge, which was reported as charge to mass ratio, also known as specific charge (nC/g) (FIG. 9). All experiments were done in triplicate at room temperature and at 16% RH. Similar experiments were also performed using ibuprofen—excipient blends to understand equipment capability to mitigate electrostatic charging in other powders. For this study, Ibuprofen—Sugar sphere (500/600 μm) blends were evaluated using stainless steel (SS), stainless steel-PVC (SS-PVC), and PVC blenders. Sugar spheres is widely used excipient for sustained-release pellet formulations used in oral dosage forms therefore, selected for this study.
With reference to FIGS. 10-16, to study triboelectrification, a measured quantity 50 g of ibuprofen was loaded into the V blender 110 which were rotated at 13 rpm for different time intervals. The experiments were performed for different time intervals such as 2, 10, 20, 30, and 40 mins (respectively graphed as bars A-E in FIGS. 10-14) at 13 rpm and 16% relative humidity. […] Final charge with Al-PVC blender 110 of FIG. 6 as shown with the different graphed bars 12A-12E of the bar graph of FIG. 12 was negative in polarity, e.g., due to more interaction of ibuprofen with Aluminum. It can be observed after comparing specific charge from three blenders 110, the Al-PVC blender 110 of FIG. 6 can reduce charge (FIGS. 10-12).
Additionally, the graphs of these FIGS. are showing the charge in nC/g which might appear small but industrial manufacturing involves large scale handling of powders which leads to huge electrostatic charging.

Series [2] in a line: Powder adhesion to blender wall (initial powder weight minus powder recovered). Format: physicochemical. On the procedure:
Reference will now be to FIGS. 17A, 17B and 18. To investigate the impact of using the surface of the blender on powder adhesion to the blender material, the total powder adhesion was calculated by subtracting the amount of powder recovered and initial powder weight. […] This may be the result of significant adhesive forces between the blender wall and ibuprofen particles. The blender wall has an opposite charge as compared to ibuprofen particles therefore powder particles becomes attracted to the blender wall and deposit there due to image forces. Additionally, bipolar charging may occur due to this high level of powder adhesion which could further decrease the number of particle-blender wall collisions, further changing the powder charging dynamics.

Experimental findings from patent publication US20240041773A1, “POWDER MIXING DEVICE, AND USES THEREOF” (University of Connecticut, priority 2022, published 2024) are described below.

On to `CC(C)Cc1ccc(C(C)C(=O)O)cc1` (stereo not shown) [Ibuprofen], for which the “charge accumulated compared with the PVC and Al blenders” value in series [1] (Al-PVC blender, 13 rpm, 16% RH) is “significantly less”. Moreover, the “polarity of final charge” value in series [1] (Al-PVC blender, 50 g, 13 rpm, 16% RH) was “negative”. Further, the “polarity of charge acquired” value in series [1] (Aluminum blender, 50 g, 13 rpm, 2-40 mins, 16% RH) is reported as “negatively”; in series [1] (PVC blender, 50 g, 13 rpm, 2-40 mins, 16% RH) it was “positively”; in series [1] (PVC blender, 50 g, 13 rpm, 2-40 mins, 16% RH, listed as ibuprofen) it was “positive charge”; in series [1] (stainless steel and PVC blender (SS-PVC)) it was “negative charge”; in series [1] (stainless steel blender (cGMP material)), “negative charge”. Also, the “time of charge saturation” value in series [1] (blending at 13 rpm, 16% RH) was found to be 30 min. Also, the “powder adhesion to the blender walls” value is recorded as “decrease in the powder adhesion” in series [2] (dual-material blenders (Al-PVC, SS-PVC)) and “significant adhesion” in series [2] (metal or insulator (single-material) blenders).
